Measured values published in patent US10690673B2, “Method of treating cancer metastasis by CDK 4/6 inhibitors” (Mayo Foundation for Medical Education and Research, priority 2016, dated 2020).
Where a SMILES comes first, the peptide text is derived from it. The star is where a group is joined. Cbz = O=C(OCc1ccccc1)*

Experiments:
SNAIL1 polypeptide = SNAIL1 polypeptide level by Western blotting in breast cancer cells; format: cell-based, human; conditions: for SNAIL1 polypeptide level: 0, 3, 6, or 9 μM for 18 hours
Description: FIG. 3. DUB3 deubiquitinates and stabilizes SNAIL1. (A) Cell extracts were prepared from 4 luminal and 4 basal like subtypes of human breast cancer cell lines, and expression of SNAIL1, DUB3, E-cadherin and vimentin was analyzed by Western blotting. (B) MDA-MB-231 cells stably expressing control or DUB3 shRNAs were generated and Western blot was performed with the indicated antibodies. (C) Total RNA was isolated from cells in (B). mRNAs encoding SNAIL and β-actin were determined by reverse transcription-polymerase chain reaction (RT-PCR) and agarose gel electrophoresis. (D) MDA-MB-231 cells stably expressing control or DUB3 shRNAs were treated with vehicle or MG-132 (10 μM) for 1 hour and Western blot was performed with the indicated antibodies. (E-F) T47D and MCF-7 cells were infected with virus containing vector (“V”), FLAG-DUB3 (“WT”) and the C89S (“CS”) mutant, and Western blots were performed. (F) CHX pulse-chase assay was performed in cells. (G) Cells were cotransfected with indicated plasmids and treated with MG132 for 6 hours before cell lysates were boiled and immunoprecipitated with HA beads, and the polyubiquitylated SNAIL1 polypeptide was detected by an anti-ubiquitin antibody. (H) Cells were transfected with HA-SNAIL1 and treated with MG132 for 6 hours. Cell lysates were boiled and immunoprecipitated with HA beads and incubated with GST, GST-DUB3 or GST-DUB3 C89S mutant. The polyubiquitylated SNAIL1 polypeptide was detected by an anti-ubiquitin antibody.
FIG. 10. Ser41 phosphorylation regulates DUB3 activity. (A) Cells transfected with indicated constructs were lysed and co-immunoprecipitations experiments were performed using anti-FLAG antibody. The immunoprecipates were eluted by FLAG-peptide containing buffer and the activities of DUB3 were assayed using Ubiquitin-AMC (Ub-AMC) as a substrate. (B) The eluates were detected with anti-FLAG antibody. (C) MDA-MB-231 cells were treated with either vehicle or […] for indicated periods. Western blotting was performed with indicated antibodies.
FIG. 11. Phosphorylation of Ser41 regulates DUB3 activity. (A) Cells were cotransfected with indicated plasmids and treated with vehicle or CDK 4/6 inhibitor (PD0332991 10 μM). Cell lysates were boiled and immunoprecipitated with HA beads and immunoblotted as indicated. […] (G) The migratory abilities of cells were analyzed by a wound healing assay. […] After 12 weeks, mice were sacrificed and the development of lung metastases was determined by counting and quantifying lung metastatic nodules.
FIG. 14. […] (B) MDA-MB-231 cells were treated with vehicle or LY2835219 and the migration ability of cells was measured by a wound healing assay. […] (D) HCC1806 cells were treated with vehicle or LY2835219 and the migration ability of cells was measured by a wound healing assay. […]

[1] = test system: human breast tumor biopsy sample HCI001; assay: Patient-derived xenograft (PDX) model of triple negative breast cancer, tumor growth and metastasis; format: in vivo, mice; conditions: 100 mg/kg daily, PO, five weeks; saline group 6/8; significantly decreased
Description: FIG. 13. CDK 4/6 inhibition inhibits cancer metastasis. (A) DUB3 and SNAIL1 polypeptide levels in a subset of human breast tumor biopsy samples were examined. (B) Passage 3 tumors from HCI001 were used to test the effect of PD0332991 on metastasis. When primary tumors reached 100-150 mm^3, mice were randomized and treated either with saline or PD0332991 for five weeks (n=8). Tumor weights were measured after mice were sacrificed (B). Tumor volumes were measured every week (C). After mice were sacrificed, liver (D-F) and lung (G-I) metastatic nodules were examined macroscopically or detected in paraffin-embedded sections stained with H&E. (J) The working model to illustrate that CDK 4/6 phosphorylation-dependent activation of DUB3 regulates EMT and metastasis through SNAIL1.
The results provided herein indicate that DUB3 stabilizes SNAIL1 polypeptide through deubiquitinating SNAIL1 and CDK 4/6 activity is involved in SNAIL1 stabilization. […] DUB3 and SNAIL1 levels were detected and correlated in a subset of human breast cancer samples from the BEAUTY project (FIG. 13A). […]
A patient-derived xenograft model was generated from an estrogen receptor-negative, progesterone receptor-negative, human epidermal growth factor receptor 2-negative (ER^−PR^−_HER2^−) high-grade invasive ductal carcinoma. […] Tumor volumes were measured once per week. […] Data were analyzed using Student's t test. […]

[2] = test system: phosphorylation of DUB3 at Ser41; assay: Phosphorylation of DUB3 at Ser41 in transfected cells (anti-FLAG immunoprecipitation, Western blotting); format: cell-based; conditions: cells transfected with FLAG-DUB3 WT
Description: FIG. 8. CDK 4/6 phosphorylates DUB3 at Ser 41. (A) DUB3 phosphorylation sites were analyzed by mass spectrometry. If the Ascore values for Ascore Seq_A are above 19, then the location is considered confidently assigned (indicated with pink cell backgrounds). (B) Cells were transfected with indicated plasmids and cell lysates were subjected to immunoprecipitation with an anti-FLAG antibody and Western blotting was performed. (C) Cells were transfected with indicated plasmids and were treated with vehicle, or pan-CDK inhibitor (Roscovitine 5 μM) or CDK 4/6 inhibitor (PD0332991 10 μM). The phosphorylation of Ser41 was examined. (D) CDK 4/6 phosphorylates DUB3 in vitro. Bacterially expressed GST and GST-DUB3 fusion polypeptides were incubated with active CDK4 or CDK6 in the presence of [γ-32P]ATP. Polypeptides were resolved by SDS-PAGE, and phosphorylated polypeptides were visualized with autoradiography. (E) Vector or FLAG-DUB3 were transfected in cells stably expressing indicated shRNA. The phosphorylation of Ser41 in DUB3 was then examined.
FIG. 15. CDK1 phosphorylates DUB3 at Ser41 in vitro, and the treatment of pan-CDK inhibitor Roscovitine decreased phosphorylation of DUB3. (A) Bacterially-expressed GST-DUB3 WT and GST-DUB3 S41A fusion polypeptides were incubated with active CDK4, CDK6, CDK1, or CDK2 in the presence of [γ-^32P]ATP. […]

Nc1nc(N)c(N=O)c(OCC2CCCCC2)n1 [DU6027]
SNAIL1 polypeptide level (SNAIL1 polypeptide; BT549 cells, FIG. 16): decreases | SNAIL1 polypeptide level (SNAIL1 polypeptide; MDA-MB-231 cells, FIG. 17): decreases

CC(C)C[C@@H](C=O)NC(=O)[C@H](CC(C)C)NC(=O)[C@H](CC(C)C)NC(=O)OCc1ccccc1 [MG-132] (Cbz-Leu-Leu-Leu-aldehyde)
effect on decreased SNAIL1 polypeptide level in cells depleting DUB3 (SNAIL1 polypeptide; MDA-MB-231 cells stably expressing DUB3 shRNAs, MG-132 10 μM for 1 hour, FIG. 3D): rescue | effect on PD0332991-induced reduction of SNAIL1 polypeptide level (SNAIL1 polypeptide; MDA-MB-231 cells, PD0332991 in the presence of MG-132, FIG. 11D): reversed

CC(=O)c1c(C)c2cnc(Nc3ccc(N4CCNCC4)cn3)nc2n(C2CCCC2)c1=O [PD0332991, Palbociclib]
liver metastasis (mice with metastasis / mice in group) [1]: 1/8 | lung metastasis (mice with metastasis / mice in group) [1]: 2/8

CC[C@H](CO)Nc1nc(NCc2ccccc2)c2ncn(C(C)C)c2n1 [Roscovitine]
phosphorylation of DUB3 at Ser41 ([2]; Example 11, FIG. 15B, concentration not given): dramatically reduced | phosphorylation of DUB3 at Ser41 ([2]; Roscovitine 5 μM, FIG. 8C): dramatically reduced
